How the values were obtained:
Type in all cases: in vivo
[1] = test system: Amaranthus retoflexus (AMARE); test: Pre-emergence herbicidal test; conditions: 1000 g/ha, evaluated after 13 days
[2] = test system: Echinochloa crus-galli (ECHCG); test: Pre-emergence herbicidal test; conditions: 1000 g/ha, evaluated after 13 days
[3] = test system: Echinochloa crus-galli (ECHCG); test: Post-emergence herbicidal test; conditions: 1000 g/ha unless otherwise stated, evaluated after 13 days
Procedure, shortened: (§1)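 Pots sown in standard soil were kept in a glasshouse (24° C./16° C. day/night, 14 hours light, 65% humidity) and sprayed at 1000 g/ha unless otherwise stated in acetone/water (50:50) with 0.5% Tween 20. Percentage damage was scored after 13 days on a 0–5 scale.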

[4] = test system: Abutilon theophrasti (ABUTH); test: Post-emergence herbicidal test; conditions: 1000 g/ha unless otherwise stated, evaluated after 13 days
Procedure, shortened: as §1

[5] = test system: Ipomoea hederacea (IPOHE); test: Post-emergence herbicidal test; conditions: 1000 g/ha unless otherwise stated, evaluated after 13 days
Procedure, shortened: as §1

[6] = test system: Amaranthus retoflexus (AMARE); test: Post-emergence herbicidal test; conditions: 1000 g/ha unless otherwise stated, evaluated after 13 days
Procedure, shortened: as §1

[7] = test system: Setaria faberi (SETFA); test: Post-emergence herbicidal test; conditions: 1000 g/ha unless otherwise stated, evaluated after 13 days
Procedure, shortened: as §1

[8] = test system: Zea mays (ZEAMX); test: Post-emergence herbicidal test; conditions: 1000 g/ha unless otherwise stated, evaluated after 13 days
Procedure, shortened: as §1

[9] = test system: Setaria faberi (SETFA); test: Pre-emergence herbicidal test; conditions: 1000 g/ha, evaluated after 13 days
[10] = test system: Abutilon theophrasti (ABUTH); test: Pre-emergence herbicidal test; conditions: 1000 g/ha, evaluated after 13 days
[11] = test system: Zea mays (ZEAMX); test: Pre-emergence herbicidal test; conditions: 1000 g/ha, evaluated after 13 days
[12] = test system: Ipomoea hederacea (IPOHE); test: Pre-emergence herbicidal test; conditions: 1000 g/ha, evaluated after 13 days

SMILES: CC(C)Cc1cc(S(C)(=O)=O)c2c(=O)c(C(=O)O)nn(-c3ccc(OC(F)(F)F)cc3)c2c1 [Compound P14, 7-isobutyl-5-methylsulfonyl-4-oxo-1-[4-(trifluoromethoxy)phenyl]cinnoline-3-carboxylic acid]
- percentage damage caused to the plant, five-point scale, AMARE [1]: 1 (1=10-20%)
- percentage damage caused to the plant, five-point scale, ECHCG [2]: 1 (1=10-20%)
- percentage damage caused to the plant, ECHCG (five-point scale) [3]: 0 (0=0%)
- percentage damage caused to the plant, ABUTH (five-point scale) [4]: 1 (1=10-20%)
- percentage damage caused to the plant, IPOHE (five-point scale) [5]: 0 (0=0%)
- percentage damage caused to the plant, AMARE (five-point scale) [6]: 1 (1=10-20%)
- percentage damage caused to the plant, SETFA (five-point scale) [7]: 0 (0=0%)
- percentage damage caused to the plant, ZEAMX (five-point scale) [8]: 0 (0=0%)
- percentage damage caused to the plant, five-point scale, SETFA [9]: 1 (1=10-20%)
- percentage damage caused to the plant, five-point scale, ABUTH [10]: 1 (1=10-20%)
- percentage damage caused to the plant, five-point scale, ZEAMX [11]: 1 (1=10-20%)
- percentage damage caused to the plant, five-point scale, IPOHE [12]: 0 (0=0%)

SMILES: CS(=O)(=O)c1cccc2c1c(=O)c(C(=O)OCCCl)nn2-c1ccc(OC(F)(F)F)cc1 [Compound P61, 2-chloroethyl 5-methylsulfonyl-4-oxo-1-[4-(trifluoromethoxy)phenyl]cinnoline-3-carboxylate]
- percentage damage caused to the plant, five-point scale, AMARE [1]: 0 (0=0%)
- percentage damage caused to the plant, five-point scale, ECHCG [2]: 4 (4=61-80%)
- percentage damage caused to the plant, ECHCG (five-point scale) [3]: 3 (3=41-60%)
- percentage damage caused to the plant, ABUTH (five-point scale) [4]: 2 (2=21-40%)
- percentage damage caused to the plant, IPOHE (five-point scale) [5]: 0 (0=0%)
- percentage damage caused to the plant, AMARE (five-point scale) [6]: 0 (0=0%)
- percentage damage caused to the plant, SETFA (five-point scale) [7]: 4 (4=61-80%)
- percentage damage caused to the plant, ZEAMX (five-point scale) [8]: 0 (0=0%)
- percentage damage caused to the plant, five-point scale, SETFA [9]: 5 (5=81-100%)
- percentage damage caused to the plant, five-point scale, ABUTH [10]: 0 (0=0%)
- percentage damage caused to the plant, five-point scale, ZEAMX [11]: 1 (1=10-20%)
- percentage damage caused to the plant, five-point scale, IPOHE [12]: 0 (0=0%)

SMILES: CS(=O)(=O)c1cccc2c1c(=O)c(C(=O)OCCCc1ccccc1)nn2-c1ccc(OC(F)(F)F)cc1 [Compound P84, 3-phenylpropyl 5-methylsulfonyl-4-oxo-1-[4-(trifluoromethoxy)phenyl]cinnoline-3-carboxylate]
- percentage damage caused to the plant, five-point scale, AMARE [1]: 0 (0=0%)
- percentage damage caused to the plant, five-point scale, ECHCG [2]: 3 (3=41-60%)
- percentage damage caused to the plant, ECHCG (five-point scale) [3]: 2 (2=21-40%)
- percentage damage caused to the plant, ABUTH (five-point scale) [4]: 1 (1=10-20%)
- percentage damage caused to the plant, IPOHE (five-point scale) [5]: 1 (1=10-20%)
- percentage damage caused to the plant, AMARE (five-point scale) [6]: 0 (0=0%)
- percentage damage caused to the plant, SETFA (five-point scale) [7]: 4 (4=61-80%)
- percentage damage caused to the plant, ZEAMX (five-point scale) [8]: 0 (0=0%)
- percentage damage caused to the plant, five-point scale, SETFA [9]: 4 (4=61-80%)
- percentage damage caused to the plant, five-point scale, ABUTH [10]: 0 (0=0%)
- percentage damage caused to the plant, five-point scale, ZEAMX [11]: 0 (0=0%)
- percentage damage caused to the plant, five-point scale, IPOHE [12]: 0 (0=0%)

SMILES: CS(=O)(=O)c1cccc2c1c(=O)c(C(=O)O)nn2-c1ccc(Cl)cc1Cl [Compound P43, 1-(2,4-dichlorophenyl)-5-methylsulfonyl-4-oxo-cinnoline-3-carboxylic acid]
- percentage damage caused to the plant, five-point scale, AMARE [1]: 0 (0=0%)
- percentage damage caused to the plant, five-point scale, ECHCG [2]: 2 (2=21-40%)
- percentage damage caused to the plant, ECHCG (five-point scale) [3]: 3 (3=41-60%)
- percentage damage caused to the plant, ABUTH (five-point scale) [4]: 2 (2=21-40%)
- percentage damage caused to the plant, IPOHE (five-point scale) [5]: 1 (1=10-20%)
- percentage damage caused to the plant, AMARE (five-point scale) [6]: 1 (1=10-20%)
- percentage damage caused to the plant, SETFA (five-point scale) [7]: 4 (4=61-80%)
- percentage damage caused to the plant, ZEAMX (five-point scale) [8]: 1 (1=10-20%)
- percentage damage caused to the plant, five-point scale, SETFA [9]: 4 (4=61-80%)
- percentage damage caused to the plant, five-point scale, ABUTH [10]: 0 (0=0%)
- percentage damage caused to the plant, five-point scale, ZEAMX [11]: 0 (0=0%)
- percentage damage caused to the plant, five-point scale, IPOHE [12]: 1 (1=10-20%)

SMILES: CC(C)(C)CCOC(=O)c1nn(-c2ccc(OC(F)(F)F)cc2)c2cccc(S(C)(=O)=O)c2c1=O [Compound P86, 3,3-dimethylbutyl 5-methylsulfonyl-4-oxo-1-[4-(trifluoromethoxy)phenyl]cinnoline-3-carboxylate]
- percentage damage caused to the plant, five-point scale, AMARE [1]: 0 (0=0%)
- percentage damage caused to the plant, five-point scale, ECHCG [2]: 5 (5=81-100%)
- percentage damage caused to the plant, ECHCG (five-point scale) [3]: 4 (4=61-80%)
- percentage damage caused to the plant, ABUTH (five-point scale) [4]: 0 (0=0%)
- percentage damage caused to the plant, IPOHE (five-point scale) [5]: 0 (0=0%)
- percentage damage caused to the plant, AMARE (five-point scale) [6]: 0 (0=0%)
- percentage damage caused to the plant, SETFA (five-point scale) [7]: 4 (4=61-80%)
- percentage damage caused to the plant, ZEAMX (five-point scale) [8]: 0 (0=0%)
- percentage damage caused to the plant, five-point scale, SETFA [9]: 4 (4=61-80%)
- percentage damage caused to the plant, five-point scale, ABUTH [10]: 1 (1=10-20%)
- percentage damage caused to the plant, five-point scale, ZEAMX [11]: 1 (1=10-20%)
- percentage damage caused to the plant, five-point scale, IPOHE [12]: 0 (0=0%)

SMILES: COC(=O)c1nn(-c2ccc(OC(F)(F)F)cc2)c2cc(OC)cc(SC)c2c1=O [Compound P56, methyl 7-methoxy-5-methylsulfanyl-4-oxo-1-[4-(trifluoromethoxy)phenyl]cinnoline-3-carboxylate]
- percentage damage caused to the plant, five-point scale, AMARE [1]: 0 (0=0%)
- percentage damage caused to the plant, five-point scale, ECHCG [2]: 0 (0=0%)
- percentage damage caused to the plant, ECHCG (five-point scale) [3]: 0 (0=0%)
- percentage damage caused to the plant, ABUTH (five-point scale) [4]: 0 (0=0%)
- percentage damage caused to the plant, IPOHE (five-point scale) [5]: 0 (0=0%)
- percentage damage caused to the plant, AMARE (five-point scale) [6]: 1 (1=10-20%)
- percentage damage caused to the plant, SETFA (five-point scale) [7]: 0 (0=0%)
- percentage damage caused to the plant, ZEAMX (five-point scale) [8]: 0 (0=0%)
- percentage damage caused to the plant, five-point scale, SETFA [9]: 0 (0=0%)
- percentage damage caused to the plant, five-point scale, ABUTH [10]: 0 (0=0%)
- percentage damage caused to the plant, five-point scale, ZEAMX [11]: 0 (0=0%)
- percentage damage caused to the plant, five-point scale, IPOHE [12]: 0 (0=0%)

SMILES: Cc1cc(S(C)(=O)=O)c2c(=O)c(C(=O)O)nn(-c3ccc(OC(F)(F)F)cc3)c2c1 [Compound P7, 7-methyl-5-methylsulfonyl-4-oxo-1-[4-(trifluoromethoxy)phenyl]cinnoline-3-carboxylic acid]
- percentage damage caused to the plant, five-point scale, AMARE [1]: 1 (1=10-20%)
- percentage damage caused to the plant, five-point scale, ECHCG [2]: 4 (4=61-80%)
- percentage damage caused to the plant, ECHCG (five-point scale) [3]: 4 (4=61-80%)
- percentage damage caused to the plant, ABUTH (five-point scale) [4]: 1 (1=10-20%)
- percentage damage caused to the plant, IPOHE (five-point scale) [5]: 2 (2=21-40%)
- percentage damage caused to the plant, AMARE (five-point scale) [6]: 1 (1=10-20%)
- percentage damage caused to the plant, SETFA (five-point scale) [7]: 4 (4=61-80%)
- percentage damage caused to the plant, ZEAMX (five-point scale) [8]: 2 (2=21-40%)
- percentage damage caused to the plant, five-point scale, SETFA [9]: 4 (4=61-80%)
- percentage damage caused to the plant, five-point scale, ABUTH [10]: 1 (1=10-20%)
- percentage damage caused to the plant, five-point scale, ZEAMX [11]: 1 (1=10-20%)
- percentage damage caused to the plant, five-point scale, IPOHE [12]: 1 (1=10-20%)

SMILES: C=C(Cl)COC(=O)c1nn(-c2ccc(OC(F)(F)F)cc2)c2cccc(S(C)(=O)=O)c2c1=O [Compound P66, 2-chloroallyl 5-methylsulfonyl-4-oxo-1-[4-(trifluoromethoxy)phenyl]cinnoline-3-carboxylate]
- percentage damage caused to the plant, five-point scale, AMARE [1]: 0 (0=0%)
- percentage damage caused to the plant, five-point scale, ECHCG [2]: 4 (4=61-80%)
- percentage damage caused to the plant, ECHCG (five-point scale) [3]: 4 (4=61-80%)
- percentage damage caused to the plant, ABUTH (five-point scale) [4]: 1 (1=10-20%)
- percentage damage caused to the plant, IPOHE (five-point scale) [5]: 0 (0=0%)
- percentage damage caused to the plant, AMARE (five-point scale) [6]: 0 (0=0%)
- percentage damage caused to the plant, SETFA (five-point scale) [7]: 4 (4=61-80%)
- percentage damage caused to the plant, ZEAMX (five-point scale) [8]: 1 (1=10-20%)
- percentage damage caused to the plant, five-point scale, SETFA [9]: 5 (5=81-100%)
- percentage damage caused to the plant, five-point scale, ABUTH [10]: 0 (0=0%)
- percentage damage caused to the plant, five-point scale, ZEAMX [11]: 1 (1=10-20%)
- percentage damage caused to the plant, five-point scale, IPOHE [12]: 1 (1=10-20%)

Source: patent US20230250066A1, “HERBICIDAL CINNOLINE DERIVATIVES” (SYNGENTA CROP PROTECTION AG, priority 2020, published 2023)
